Source: ChEMBL document CHEMBL1201862, “PubChem BioAssay data set” (2004)
Active and inactive are the calls of the source.

How the values were obtained:
Cytochrome P450 2D6 = Cytochrome P450 2D6 (Homo sapiens, UniProt P10635);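 also: CYP2D6 member of a cytochrome P450 panel assay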
[1] = viability loss in THP-1 monocytes – THP-1 cells, cytotoxicity control for Vif-APOBEC3G degradation inhibitor project, dose response (AID 1117359); type: functional; details: THP-1
Cytochrome P450 3A4 = Cytochrome P450 3A4 (Homo sapiens, UniProt P08684); details: Potency;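 also: confirmatory qHTS run detecting inhibitors and substrates of CYP3A4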
HeLa = assay: viability loss in HeLa cells – cell-based, 24 h, cherry-picked samples, cytotoxicity control, dose response (AID 504726); type: functional; details: Homo sapiens;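 also: potency for cytotoxicity as loss of luminescence signal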
fMet-Leu-Phe receptor = target: T1, fMet-Leu-Phe receptor (Homo sapiens, UniProt P21462); assay: formyl peptide receptor binders – dose response (AID 519); type: functional
T1 sequence (P21462 whole entry): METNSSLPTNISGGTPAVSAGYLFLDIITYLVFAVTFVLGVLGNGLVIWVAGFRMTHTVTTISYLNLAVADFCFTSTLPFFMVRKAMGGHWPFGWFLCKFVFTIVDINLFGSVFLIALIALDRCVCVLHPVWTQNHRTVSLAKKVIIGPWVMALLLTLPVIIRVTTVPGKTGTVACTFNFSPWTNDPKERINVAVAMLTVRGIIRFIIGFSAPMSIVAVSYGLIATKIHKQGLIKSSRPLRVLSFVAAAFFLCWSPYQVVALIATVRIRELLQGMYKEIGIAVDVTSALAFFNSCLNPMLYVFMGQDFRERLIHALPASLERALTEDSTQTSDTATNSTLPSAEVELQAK

[2] = viability loss in HEK293 cells – cell-based, plate reader, cherry-picked samples, cytotoxicity control, dose response (AID 743446); type: functional
[3] = Luminescence Cell-Based Dose Response HTS to Identify Inhibitors of 5'UTR Stem-Loop Driven Prion Protein mRNA Translation in H4 Neuroglioblastoma Cells. [Related pubchem assays: 1827 (Project Summary), 1813 (Primary HTS)]; type: functional
[4] = alpha-synuclein stem-loop luciferase translation blockers – H4 neuroglioma cells, luminescence, confirmation (AID 1988); type: functional, cell-based
[5] = blockers of bursicon-stimulated LGR2 cAMP reporter – cell-based, HEK293, CRE-luciferase reporter, cherry pick, set 2, dose response (AID 743343); type: functional;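 also: transfected cells were stimulated with diluted bursicon conditioned medium after compound addition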
[6] = Luminescence Cell-Based Dose Confirmation HTS to Identify Inhibitors of Platelet Dense Granule Release. [Related pubchem assays: 1663 (Primary HTS), 1678 (Summary of Project)]; type: functional
[7] = blockade of melanocortin 4 receptor signaling – cell-based, plate reader, cherry pick, counter-screen for LGR2 antagonist project, dose response (AID 743444); type: functional;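 also: transfected HEK 293 cells stimulated with alpha-MSH peptide; potency of inhibitors of the alpha-MSH evoked signal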
[8] = A549 cell cytotoxicity, dose response, cytotoxicity control, plate reader, cherry-pick, antagonist series (AID 743412); type: functional, cell-based
[9] = target: Luciferin 4-monooxygenase (Photinus pyralis, UniProt P08659); assay: inhibition of purified Photinus pyralis luciferase – biochemical, luminescence, dose response (AID 1891)
[10] = target: T2, Heat shock factor protein 1 (Mus musculus, UniProt P38532); assay: decrease of HSF1-responsive luciferase luminescence – cell-based, NIH3T3, dose retest, confirmation (AID 2382); type: functional;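 also: NIH3T3 fibroblasts with HSF1-driven luciferase reporter stressed by proteasome inhibitor MG132; luminescence from HSF1-driven luciferase expression after 8 hours of MG132 stress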
T2 sequence (P38532 whole entry): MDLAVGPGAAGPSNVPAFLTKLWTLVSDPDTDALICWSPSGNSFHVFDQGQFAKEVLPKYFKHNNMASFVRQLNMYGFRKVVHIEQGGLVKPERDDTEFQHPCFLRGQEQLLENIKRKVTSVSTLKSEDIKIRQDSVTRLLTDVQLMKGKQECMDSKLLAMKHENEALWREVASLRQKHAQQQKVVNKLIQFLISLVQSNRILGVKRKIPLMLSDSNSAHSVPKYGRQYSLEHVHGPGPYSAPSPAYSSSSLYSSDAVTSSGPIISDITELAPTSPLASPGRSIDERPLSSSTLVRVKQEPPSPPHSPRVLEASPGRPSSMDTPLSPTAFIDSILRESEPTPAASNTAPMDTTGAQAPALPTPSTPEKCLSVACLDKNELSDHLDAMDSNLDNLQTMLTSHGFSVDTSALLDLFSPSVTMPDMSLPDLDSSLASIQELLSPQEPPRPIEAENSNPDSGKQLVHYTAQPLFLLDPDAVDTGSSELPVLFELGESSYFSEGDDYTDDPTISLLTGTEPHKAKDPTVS

[11] = luciferase reporter signal suppression in cells – H4 neuroglioma cells, luminescence, dose response (AID 1990); type: functional, cell-based
Streptokinase A = target: T3, Streptokinase A (Streptococcus pyogenes serotype M1, UniProt P10520); assay: viability-normalized secreted streptokinase activity reduction – plasminogen activation absorbance, OD405, dose response (AID 1914); type: functional, Streptococcus pyogenes M1 GAS;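 also: secreted streptokinase activity via plasminogen activation per viability signal from cell pellet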
T3 sequence (P10520 whole entry): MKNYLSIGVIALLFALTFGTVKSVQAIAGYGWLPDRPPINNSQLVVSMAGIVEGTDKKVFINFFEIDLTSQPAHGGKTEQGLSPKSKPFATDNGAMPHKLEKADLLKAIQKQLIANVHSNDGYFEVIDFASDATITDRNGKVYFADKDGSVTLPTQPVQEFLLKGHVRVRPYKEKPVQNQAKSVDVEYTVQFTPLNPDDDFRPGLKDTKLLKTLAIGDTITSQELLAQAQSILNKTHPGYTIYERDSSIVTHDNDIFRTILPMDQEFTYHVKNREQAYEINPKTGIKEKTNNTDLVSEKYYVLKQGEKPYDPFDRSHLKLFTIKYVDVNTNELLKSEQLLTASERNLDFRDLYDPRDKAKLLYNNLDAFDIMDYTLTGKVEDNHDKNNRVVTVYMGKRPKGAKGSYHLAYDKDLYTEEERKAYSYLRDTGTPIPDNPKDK

Streptococcus = assay: GAS UMAA2166 growth inhibition – luminescence, BacTiterGlo, counter-screen for streptokinase expression inhibitor project, dose response (AID 1915); type: functional, organism-based;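 also: potency for reduction of bacterial viability or growth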
[12] = tested on: Streptococcus sp. 'group A'; assay: Streptococcus pyogenes SK(-)GAS viability under kanamycin – luminescence, BacTiterGlo, confirmation, counter-screen for streptokinase expression inhibitor project, dose response (AID 1900); type: functional, organism-based
[13] = target: T4, Short transient receptor potential channel 4 (Mus musculus, UniProt Q9QUQ5); assay: block of DAMGO-driven TRPC4 calcium entry – cell-based, HEK293 TRPC4/mu-opioid, Fluo-4 calcium, dose response (AID 434942); type: functional;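 also: potency of inhibitors blocking the TRPC4 calcium response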
T4 sequence (Q9QUQ5 whole entry): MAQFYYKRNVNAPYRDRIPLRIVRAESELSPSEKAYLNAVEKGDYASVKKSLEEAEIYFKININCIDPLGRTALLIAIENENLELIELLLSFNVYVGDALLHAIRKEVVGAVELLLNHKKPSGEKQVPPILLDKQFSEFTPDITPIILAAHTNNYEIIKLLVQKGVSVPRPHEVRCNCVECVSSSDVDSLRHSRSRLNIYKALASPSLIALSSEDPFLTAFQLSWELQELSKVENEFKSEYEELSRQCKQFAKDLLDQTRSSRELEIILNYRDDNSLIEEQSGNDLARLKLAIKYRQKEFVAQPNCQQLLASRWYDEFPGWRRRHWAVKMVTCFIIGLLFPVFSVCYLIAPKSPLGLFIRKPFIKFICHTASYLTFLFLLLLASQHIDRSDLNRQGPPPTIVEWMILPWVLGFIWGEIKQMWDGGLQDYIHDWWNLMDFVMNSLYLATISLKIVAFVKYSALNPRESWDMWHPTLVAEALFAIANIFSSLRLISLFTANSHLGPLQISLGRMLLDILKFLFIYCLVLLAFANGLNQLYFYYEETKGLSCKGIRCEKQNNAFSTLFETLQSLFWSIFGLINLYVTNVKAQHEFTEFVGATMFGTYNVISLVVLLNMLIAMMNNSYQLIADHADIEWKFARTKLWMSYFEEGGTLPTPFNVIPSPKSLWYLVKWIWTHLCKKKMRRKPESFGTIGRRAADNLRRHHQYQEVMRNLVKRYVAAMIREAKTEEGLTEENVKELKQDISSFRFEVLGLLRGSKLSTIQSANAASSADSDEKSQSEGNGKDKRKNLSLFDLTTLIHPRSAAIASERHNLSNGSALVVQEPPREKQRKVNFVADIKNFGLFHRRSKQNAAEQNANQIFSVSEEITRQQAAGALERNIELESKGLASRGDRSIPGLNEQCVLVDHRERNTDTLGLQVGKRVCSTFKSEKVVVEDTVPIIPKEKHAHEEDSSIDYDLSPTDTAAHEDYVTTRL

X-box-binding protein 1 = target: T5, X-box-binding protein 1 (Homo sapiens, UniProt P17861); type: functional, Cricetulus griseus;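 also: confirmatory dose-response counter-screen serving a CHOP assay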
T5 sequence (P17861 whole entry): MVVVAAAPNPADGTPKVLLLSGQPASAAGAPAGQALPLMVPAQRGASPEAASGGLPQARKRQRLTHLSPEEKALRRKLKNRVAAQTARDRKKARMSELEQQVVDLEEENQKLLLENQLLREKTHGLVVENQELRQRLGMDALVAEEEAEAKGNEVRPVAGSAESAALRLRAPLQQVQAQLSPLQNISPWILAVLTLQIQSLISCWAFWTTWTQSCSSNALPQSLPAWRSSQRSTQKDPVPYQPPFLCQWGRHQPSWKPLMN

Cytochrome P450 3A4, sequence (P08684 whole entry): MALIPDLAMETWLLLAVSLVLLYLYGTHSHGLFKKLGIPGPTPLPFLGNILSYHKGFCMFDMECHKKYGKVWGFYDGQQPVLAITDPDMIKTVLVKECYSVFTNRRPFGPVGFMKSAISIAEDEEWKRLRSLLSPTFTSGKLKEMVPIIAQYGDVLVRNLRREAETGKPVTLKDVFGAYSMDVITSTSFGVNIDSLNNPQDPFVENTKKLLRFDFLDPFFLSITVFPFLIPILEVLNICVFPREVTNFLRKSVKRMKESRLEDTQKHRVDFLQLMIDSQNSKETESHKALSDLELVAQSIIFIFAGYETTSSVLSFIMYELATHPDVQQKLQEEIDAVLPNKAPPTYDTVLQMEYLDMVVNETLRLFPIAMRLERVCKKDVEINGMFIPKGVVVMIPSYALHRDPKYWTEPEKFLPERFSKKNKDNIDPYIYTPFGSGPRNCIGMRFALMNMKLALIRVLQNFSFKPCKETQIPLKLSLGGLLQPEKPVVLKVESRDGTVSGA
Luciferin 4-monooxygenase, sequence (P08659 whole entry): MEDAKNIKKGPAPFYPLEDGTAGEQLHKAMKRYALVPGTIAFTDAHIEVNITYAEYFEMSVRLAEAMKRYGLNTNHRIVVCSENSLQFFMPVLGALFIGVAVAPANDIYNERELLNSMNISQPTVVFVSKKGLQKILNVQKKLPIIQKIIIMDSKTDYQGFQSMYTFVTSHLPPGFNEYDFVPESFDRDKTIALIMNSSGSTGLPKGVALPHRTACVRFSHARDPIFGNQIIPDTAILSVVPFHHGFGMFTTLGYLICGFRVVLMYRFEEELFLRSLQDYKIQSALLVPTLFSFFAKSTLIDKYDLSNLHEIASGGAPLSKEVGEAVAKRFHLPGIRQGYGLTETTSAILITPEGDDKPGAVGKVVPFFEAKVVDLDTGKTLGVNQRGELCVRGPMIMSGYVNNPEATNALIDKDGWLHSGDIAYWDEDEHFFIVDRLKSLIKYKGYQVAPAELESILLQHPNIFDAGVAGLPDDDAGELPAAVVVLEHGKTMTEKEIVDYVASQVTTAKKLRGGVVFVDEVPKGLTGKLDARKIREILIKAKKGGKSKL
Cytochrome P450 2D6, sequence (P10635 whole entry): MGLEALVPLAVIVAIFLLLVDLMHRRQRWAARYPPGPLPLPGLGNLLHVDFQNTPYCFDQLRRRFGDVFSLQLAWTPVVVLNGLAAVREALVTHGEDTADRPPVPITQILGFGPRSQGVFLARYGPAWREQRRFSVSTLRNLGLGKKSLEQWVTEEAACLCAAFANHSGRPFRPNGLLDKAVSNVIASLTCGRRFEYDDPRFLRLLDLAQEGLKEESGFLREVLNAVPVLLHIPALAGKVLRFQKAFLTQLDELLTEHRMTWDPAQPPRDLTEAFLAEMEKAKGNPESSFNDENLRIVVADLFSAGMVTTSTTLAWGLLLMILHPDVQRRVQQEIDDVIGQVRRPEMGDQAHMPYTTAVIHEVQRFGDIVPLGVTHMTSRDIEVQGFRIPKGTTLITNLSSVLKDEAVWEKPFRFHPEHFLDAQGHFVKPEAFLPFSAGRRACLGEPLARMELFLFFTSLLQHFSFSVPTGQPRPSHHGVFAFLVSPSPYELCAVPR

With Oc1ccc(C2Nc3cccc4cccc(c34)N2)c(O)c1 the AC50 (Cytochrome P450 2D6) was 25.1 µM (inconclusive) and the CC50 [1] was > 40 µM (active).
With COCCNC(=O)[C@H](C)/C=C/C(NC(=O)OCc1ccccc1)c1ccc(C(=O)OC)cc1 (stereo not given in full) the AC50 (Cytochrome P450 3A4) was 7.94 µM (inconclusive).
With CN(C)c1ccc(/C=C2\CCCN=C2c2cccnc2)cc1 the AC50 (Cytochrome P450 3A4) was 10 µM (inconclusive).
In the case of COc1cccc(NC(=O)CN(C)CC(=O)NCc2ccco2)c1, the AC50 (HeLa) is reported as 115 µM (active).
For COC(=O)[C@@H]1C[C@@]2(O)[C@H](O)[C@H](O)[C@H](O)C[C@H]2N1Cc1c(F)cccc1Cl, the AC50 (Cytochrome P450 3A4) was 25.1 µM (inconclusive).
With CCOC(=O)C(C)(C)N(Cc1ccccc1C)S(=O)(=O)c1ccc(Cl)c([N+](=O)[O-])c1 the AC50 (HeLa) was 29.8 µM (active).
For COc1ccc(C2C(C(=O)c3ccco3)=C(O)C(=O)N2Cc2cccnc2)cc1OC (stereo not given), the Ki (fMet-Leu-Phe receptor) was > 66.7 µM (inactive).
In the case of O=C(Nc1ccc(-c2nc3cccnc3s2)cc1)C1CCCO1 (stereo not given), the AC50 [2] is reported as 38.4 µM (active), the EC50 [3] is reported as 6.12 µM (active) and the EC50 [4] is reported as 4.56 µM (active). The AC50 [5] was 1.98 µM (active), the EC50 [6] was 4.58 µM (active) and the AC50 [7] was 2.45 µM (active). For the same molecule, the AC50 [8] was > 52 µM (inactive), the EC50 [9] was 6.36 µM (active) and the EC50 [10] was 11.3 µM (active). The EC50 [11] was 6.46 µM (inconclusive).
In the case of CCN(c1ccc(C)cc1C)S(=O)(=O)c1nnc(NC(=O)c2ccco2)s1, the EC50 (Streptokinase A) is reported as 17.5 µM (active), the AC50 (HeLa) is reported as 60.2 µM (active) and the EC50 (Streptococcus) is reported as 43.1 µM (active). The EC50 [12] was 2.15 µM (active).
With C=CCN(CC(O)c1cccc([N+](=O)[O-])c1)C(C)CCc1ccccc1 (stereo not given) the EC50 [13] was 3.35 µM (active) and the EC50 [10] was > 195 µM (not active).
In the case of O=C(Nc1cc(Cl)ccc1O)c1cc2n(n1)C(C(F)(F)F)CC(c1ccc3c(c1)OCO3)N2 (stereo not given), the “Absolute IC50 (XBP1)” value (X-box-binding protein 1) is reported as 10 µM.
